{"source": "paper PMC9502466", "about": "“Identification of SARS-CoV-2 Main Protease Inhibitors from a Library of Minor Cannabinoids by Biochemical Inhibition Assay and Surface Plasmon Resonance Characterized Binding Affinity” (Molecules, 2022)", "key": {"SARS-CoV-2 M^pro [1]": {"target": "T1, SARS-CoV-2 M^pro (Severe acute respiratory syndrome coronavirus 2, UniProt P0DTD1)", "assay": "biochemical", "conditions": "for inhibition at 10 µM: read-out: inhibition rate of SARS-CoV-2 M^pro activity, 10 μM"}, "[2]": {"system": "pseudovirus expressing the SARS-CoV-2 spike protein", "conditions": "cited from earlier work"}, "SARS-CoV-2 M^pro [3]": {"target": "T1, SARS-CoV-2 M^pro", "set-up": "method as in PMID 33290767", "conditions": "in vitro, cited from earlier work"}}, "note": "Several values for one entry are separate records, joined by “and”; a condition that tells them apart may be missing. Identical values can stand only once. Like-named read-outs stand apart in the source and are kept apart here."}
{"compound": "11-nor-Δ^8-tetrahydrocannabinol-9-Carboxylic acid [11-OH-THC]", "values": [{"measurement": "inhibition rate of SARS-CoV-2 M^pro activity", "setting": "SARS-CoV-2 M^pro [1]; 10 µM", "value": 56.0, "unit": "%"}]}
{"compound": "C=C(C)[C@@H]1C[C@H](O)C(C)=C[C@H]1c1c(O)cc(CCCCC)cc1O", "note": "[6α-OH-CBD, 6α-hydroxy cannabidiol]", "values": [{"measurement": "inhibition at 10 µM", "setting": "SARS-CoV-2 M^pro [1]", "value": 14.7, "unit": "%"}]}
{"compound": "CCCCCc1cc(O)c2c(c1)OC(C)(CCC=C(C)C)C=C2", "note": "(centres unmarked) [CBC, cannabichromene]", "values": [{"measurement": "inhibition at 10 µM", "setting": "SARS-CoV-2 M^pro [1]", "value": 42.1, "unit": "%"}]}
{"compound": "CCCCCc1cc2c(c(O)c1C(=O)O)C=CC(C)(CCC=C(C)C)O2", "note": "(centres unmarked) [CBCA, cannabichromenic acid]", "values": [{"measurement": "inhibition at 10 µM", "setting": "SARS-CoV-2 M^pro [1]", "value": "< 10", "unit": "%"}]}
{"compound": "CCCc1cc2c(c(O)c1C(=O)O)C=CC(C)(CCC=C(C)C)O2", "note": "(centres unmarked) [CBCVA, cannabichromevarinic acid]", "values": [{"measurement": "inhibition at 10 µM", "setting": "SARS-CoV-2 M^pro [1]", "value": "< 10", "unit": "%"}]}
{"compound": "C=C(C)[C@@H]1CCC(C)=C[C@H]1c1c(O)cc(CCCCC)cc1O", "note": "[CBD, cannabidiol, reference compound]", "values": [{"measurement": "inhibition at 50 µM", "setting": "SARS-CoV-2 M^pro [1]", "value": 13.2, "unit": "%"}, {"measurement": "inhibition at 250 µM", "setting": "SARS-CoV-2 M^pro [1]", "value": 23, "unit": "%"}, {"measurement": "inhibition at 10 µM", "setting": "SARS-CoV-2 M^pro [1]", "value": 8.74, "unit": "%"}]}
{"compound": "C=C(C)[C@@H]1CCC(C)=C[C@H]1c1c(O)cc(CCCCC)c(C(=O)O)c1O", "note": "[CBDA, cannabidiolic acid]", "values": [{"measurement": "effect on pseudovirus infection (in words)", "setting": "[2]", "value": "block the infection"}, {"measurement": "inhibition at 2 µM", "setting": "SARS-CoV-2 M^pro [1]; 2 μM", "value": 11.9, "unit": "%"}, {"measurement": "inhibition at 50 µM", "setting": "SARS-CoV-2 M^pro [1]", "value": 84.8, "unit": "%"}, {"measurement": "inhibition at 250 µM", "setting": "SARS-CoV-2 M^pro [1]", "value": 101, "unit": "%"}, {"measurement": "inhibition at 10 µM", "setting": "SARS-CoV-2 M^pro [1]", "value": 29.4, "unit": "%"}]}
{"compound": "C=C(C)[C@@H]1CCC(C)=C[C@H]1c1c(O)cc(CCCCC)c(C(=O)OC)c1O", "note": "[CBDAME, cannabidiolic acid methyl ester]", "values": [{"measurement": "inhibition at 10 µM", "setting": "SARS-CoV-2 M^pro [1]", "value": 13.7, "unit": "%"}]}
{"compound": "C=C(C)[C@@H]1CCC(C)=C[C@H]1c1c(O)cc(CCCC)cc1O", "note": "[CBDB, cannabidibutol]", "values": [{"measurement": "inhibition at 10 µM", "setting": "SARS-CoV-2 M^pro [1]", "value": 19.4, "unit": "%"}]}
{"compound": "C=C(C)[C@@H]1CCC(C)=C[C@H]1c1c(O)cc(CCCCCCC)cc1O", "note": "[CBDP, cannabidiphorol]", "values": [{"measurement": "inhibition at 10 µM", "setting": "SARS-CoV-2 M^pro [1]", "value": 6.55, "unit": "%"}]}
{"compound": "C=C(C)[C@@H]1CCC(C)=C[C@H]1c1c(O)cc(CCC)cc1O", "note": "[CBDV, cannabidivarin]", "values": [{"measurement": "inhibition at 10 µM", "setting": "SARS-CoV-2 M^pro [1]", "value": 6.87, "unit": "%"}]}
{"compound": "CCCCCc1cc(O)c(C/C=C(\\C)CCC=C(C)C)c(O)c1", "note": "[CBG, cannabigerol]", "values": [{"measurement": "inhibition at 10 µM", "setting": "SARS-CoV-2 M^pro [1]", "value": 25.4, "unit": "%"}]}
{"compound": "CCCCCc1cc(O)c(C/C=C(\\C)CCC=C(C)C)c(O)c1C(=O)O", "note": "[CBGA, cannabigerolic acid]", "values": [{"measurement": "effect on pseudovirus infection (in words)", "setting": "[2]", "value": "block the infection"}, {"measurement": "inhibition rate of SARS-CoV-2 M^pro activity", "setting": "SARS-CoV-2 M^pro [1]; 10 μM", "value": "> 70", "unit": "%"}, {"measurement": "inhibition at 12.5 µM", "setting": "SARS-CoV-2 M^pro [1]; 12.5 μM", "value": 6, "unit": "%"}, {"measurement": "inhibition at 25 µM", "setting": "SARS-CoV-2 M^pro [1]; 25 μM", "value": 8, "unit": "%"}, {"measurement": "inhibition at 50 µM", "setting": "SARS-CoV-2 M^pro [1]", "value": 18.5, "unit": "%"}, {"measurement": "inhibition at 100 µM", "setting": "SARS-CoV-2 M^pro [1]; 100 μM", "value": 18.2, "unit": "%"}, {"measurement": "inhibition at 250 µM", "setting": "SARS-CoV-2 M^pro [1]", "value": 72.9, "unit": "%"}, {"measurement": "IC50", "setting": "SARS-CoV-2 M^pro [1]", "value": "14.4 µM and 20.7 µM"}, {"measurement": "inhibition at 10 µM", "setting": "SARS-CoV-2 M^pro [1]", "value": 72.9, "unit": "%"}]}
{"compound": "CCCCCc1cc(O)c2c(c1)OC1(C)CCC3C1C2C3(C)C", "note": "(centres unmarked) [CBL, cannabicyclol]", "values": [{"measurement": "inhibition at 10 µM", "setting": "SARS-CoV-2 M^pro [1]", "value": 31.1, "unit": "%"}]}
{"compound": "CCCCCc1cc(O)c2c(c1)OC(C)(C)c1ccc(C)cc1-2", "note": "[CBN, cannabinol]", "values": [{"measurement": "inhibition at 10 µM", "setting": "SARS-CoV-2 M^pro [1]", "value": 28.7, "unit": "%"}, {"measurement": "IC50", "setting": "SARS-CoV-2 M^pro [3]", "value": 7.91, "unit": "µM"}]}
{"compound": "C=C(C)c1ccc(C)cc1-c1c(O)cc(CCCCC)cc1O", "note": "[CBND, cannabinodiol]", "values": [{"measurement": "inhibition at 10 µM", "setting": "SARS-CoV-2 M^pro [1]", "value": "< 10", "unit": "%"}]}
{"compound": "CCCCCc1cc2c3c(c1)OC(C)(C)C1CCC(C)(CC31)O2", "note": "(centres unmarked) [CBT, cannabicitran]", "values": [{"measurement": "inhibition at 10 µM", "setting": "SARS-CoV-2 M^pro [1]", "value": "< 10", "unit": "%"}]}
{"compound": "O=C[C@H](C[C@@H]1CCNC1=O)NC(=O)[C@H](Cc1cccc(F)c1)NC(=O)c1cc2ccccc2[nH]1", "note": "[M^pro 11b, reference compound]", "values": [{"measurement": "inhibition rate of SARS-CoV-2 M^pro activity", "setting": "SARS-CoV-2 M^pro [1]; 10 µM", "value": "> 98", "unit": "%"}]}
{"compound": "Cc1cc(C(=O)N[C@@H](C)C(=O)N[C@H](C(=O)N[C@@H](CC(C)C)C(=O)N[C@H](/C=C/C(=O)OCc2ccccc2)C[C@@H]2CCNC2=O)C(C)C)no1", "note": "[M^pro N3, reference compound]", "values": [{"measurement": "inhibition rate of SARS-CoV-2 M^pro activity", "setting": "SARS-CoV-2 M^pro [1]; 10 µM", "value": "> 98", "unit": "%"}]}
{"compound": "CCCCc1cc(O)c2c(c1)OC(C)(C)[C@@H]1CCC(C)=C[C@@H]21", "note": "[THCB, Δ^9-tetrahydrocannabibutol]", "values": [{"measurement": "inhibition rate of SARS-CoV-2 M^pro activity", "setting": "SARS-CoV-2 M^pro [1]; 10 μM", "value": "> 70", "unit": "%"}, {"measurement": "IC50", "setting": "SARS-CoV-2 M^pro [1]", "value": 3.62, "unit": "µM"}, {"measurement": "inhibition at 10 µM", "setting": "SARS-CoV-2 M^pro [1]", "value": 81, "unit": "%"}]}
{"compound": "CCCCCc1cc(O)c2c(c1)OC(C)(C)[C@@H]1CCC(C)=C[C@@H]21", "note": "[Δ^9-THC, Δ^9-tetrahydrocannabinol, reference compound]", "values": [{"measurement": "IC50", "setting": "SARS-CoV-2 M^pro [3]; read-out: IC50", "value": 10.2, "unit": "µM"}]}
